The values that follow come from ChEMBL document CHEMBL2040722, “Synthesis and anti-breast cancer activity of new indolylquinone derivatives” (Eur J Med Chem, 2012).

What is called IC50 is the concentration that inhibits the measured activity by half.

Structures are written as SMILES. In brackets after ≈: the same amount, converted by molar mass. Activity calls are given as the source filed them. The calls are words filed in the database; no cut-off is given here.

The test system of one assay is MDA-MB-231. Briefly: Antiproliferative activity against human MDA-MB-231 cells after 48 hrs by CCK-8 assay. The format is functional, cell-based. To be noted: MDA-MB-231, 48 h.
For `Cc1[nH]c2ccccc2c1C1=C(Br)C(=O)C(Br)=C(c2c(-c3ccccc3)[nH]c3ccccc23)C1=O`, the IC50 was 4.33 µg/mL (≈ 7.39 µM).

In turn, `COc1cccc2c1C(=O)c1c(O)c3c(c(O)c1C2=O)C[C@@](O)(C(=O)CO)C[C@@H]3O[C@H]1C[C@H](N)[C@H](O)[C@H](C)O1` [DOXORUBICIN] yielded an IC50 of 0.2 µg/mL (≈ 0.368 µM).

Take `Cc1[nH]c2ccccc2c1C1=C(Cl)C(=O)C(c2c(-c3ccccc3)[nH]c3ccccc23)=C(Cl)C1=O`: the IC50 turned out to be 4.46 µg/mL (≈ 8.97 µM).

In the case of `Cc1ccc(-c2[nH]c3ccccc3c2C2=C(Br)C(=O)C(Br)=C(Br)C2=O)cc1`, the IC50 was found to be 21.6 µg/mL (≈ 39.2 µM).

For the compound `COc1ccc2[nH]c(C)c(C3=C(Cl)C(=O)C(Cl)=C(c4c(-c5ccc(C)cc5)[nH]c5ccccc45)C3=O)c2c1`, half-maximal inhibition (IC50) required 6.04 µg/mL (≈ 11.2 µM).

Turning to `COc1ccc2[nH]c(C)c(C3=C(Br)C(=O)C(c4c(C)[nH]c5ccccc45)=C(Br)C3=O)c2c1`, the concentration for half-maximal inhibition (IC50) was > 10 µg/mL.

Take `Cc1[nH]c2ccccc2c1C1=C(Br)C(=O)C(Br)=C(c2c(C)[nH]c3ccccc23)C1=O`: half-maximal inhibition (IC50) was put at 4.76 µg/mL (≈ 9.08 µM).

Consider `Cc1ccc(-c2[nH]c3ccccc3c2C2=C(Cl)C(=O)C(c3c(C)[nH]c4ccccc34)=C(Cl)C2=O)cc1`, for which the IC50 stood at 4.21 µg/mL (≈ 8.23 µM).

For `Cc1[nH]c2ccccc2c1C1=C(Br)C(=O)C(c2c(-c3ccccc3)[nH]c3ccccc23)=C(Br)C1=O`, the IC50 was 5.64 µg/mL (≈ 9.62 µM).

Regarding `COc1ccc2[nH]c(C)c(C3=C(Cl)C(=O)C(c4c(-c5ccc(C)cc5)[nH]c5ccccc45)=C(Cl)C3=O)c2c1`, the IC50 worked out at 4.15 µg/mL (≈ 7.66 µM).

`Cc1ccc(-c2[nH]c3ccccc3c2C2=C(Br)C(=O)C(c3c(C)[nH]c4ccccc34)=C(Br)C2=O)cc1` had an IC50 of 6.67 µg/mL (≈ 11.1 µM).

On to `COc1ccc2[nH]c(C)c(C3=C(Br)C(=O)C(c4c(-c5ccc(C)cc5)[nH]c5ccccc45)=C(Br)C3=O)c2c1`, for which inhibition was half-maximal at 3.99 µg/mL (≈ 6.33 µM) (IC50).

In the case of `COc1ccc2[nH]c(C)c(C3=C(Br)C(=O)C(Br)=C(c4c(C)[nH]c5ccc(OC)cc45)C3=O)c2c1`, the midpoint of inhibition, the IC50, lay at 8.43 µg/mL (≈ 14.4 µM).

In turn, `Cc1[nH]c2ccccc2c1C1=C(Br)C(=O)C(c2c(C)[nH]c3ccccc23)=C(Br)C1=O` had an IC50 of 5.55 µg/mL (≈ 10.6 µM).

The compound `COc1ccc2[nH]c(C)c(C3=C(Br)C(=O)C(Br)=C(c4c(-c5ccccc5)[nH]c5ccccc45)C3=O)c2c1` displayed an IC50 of 7.67 µg/mL (≈ 12.4 µM).

Compound `COc1ccc2[nH]c(C)c(C3=C(Br)C(=O)C(c4c(-c5ccccc5)[nH]c5ccccc45)=C(Br)C3=O)c2c1` had an IC50 of 5.02 µg/mL (≈ 8.15 µM).

As to `COc1ccc2[nH]c(C)c(C3=C(Br)C(=O)C(Br)=C(Br)C3=O)c2c1`, the IC50 was > 10 µg/mL.

Compound `Cc1[nH]c2ccccc2c1C1=C(Cl)C(=O)C(Cl)=C(c2c(-c3ccccc3)[nH]c3ccccc23)C1=O` gave an IC50 of 5.27 µg/mL (≈ 10.6 µM).

`Cc1ccc(-c2[nH]c3ccccc3c2C2=C(Cl)C(=O)C(Cl)=C(c3c(C)[nH]c4ccccc34)C2=O)cc1` returned an IC50 of 5.77 µg/mL (≈ 11.3 µM).

Turning to `Cc1ccc(-c2[nH]c3ccccc3c2C2=C(Br)C(=O)C(Br)=C(c3c(C)[nH]c4ccccc34)C2=O)cc1`, it took 5.89 µg/mL (≈ 9.81 µM) to reach half-maximal inhibition (IC50).

The compound `O=C1C(Cl)=C(Cl)C(=O)C(c2c(-c3ccccc3)[nH]c3ccccc23)=C1Cl` came in with an IC50 of 34.9 µg/mL (≈ 86.8 µM).

In another assay the test system is MCF7. Briefly: Antiproliferative activity against human MCF7 cells after 48 hrs by CCK-8 assay. The format is functional, cell-based. To be noted: MCF7, 48 h. For orientation: Tetrazolium assays rely on reduction of a dye to a coloured formazan, in cell work by metabolically active cells.
Take `Cc1[nH]c2ccccc2c1C1=C(Br)C(=O)C(Br)=C(c2c(-c3ccccc3)[nH]c3ccccc23)C1=O`: the IC50 is 3.02 µg/mL (≈ 5.15 µM).

For `Cc1[nH]c2ccccc2c1C1=C(Cl)C(=O)C(c2c(-c3ccccc3)[nH]c3ccccc23)=C(Cl)C1=O`, the IC50 came out at 2.29 µg/mL (≈ 4.6 µM).

On to `Cc1ccc(-c2[nH]c3ccccc3c2C2=C(Br)C(=O)C(Br)=C(Br)C2=O)cc1`, for which the concentration for half-maximal inhibition (IC50) is > 25 µg/mL.

With `COc1ccc2[nH]c(C)c(C3=C(Cl)C(=O)C(Cl)=C(c4c(-c5ccc(C)cc5)[nH]c5ccccc45)C3=O)c2c1`, the IC50 amounted to 2.31 µg/mL (≈ 4.27 µM).

For `COc1ccc2[nH]c(C)c(C3=C(Br)C(=O)C(c4c(C)[nH]c5ccccc45)=C(Br)C3=O)c2c1`, the concentration for half-maximal inhibition (IC50) is > 25 µg/mL.

Compound `Cc1[nH]c2ccccc2c1C1=C(Br)C(=O)C(Br)=C(c2c(C)[nH]c3ccccc23)C1=O` had an IC50 of 8.33 µg/mL (≈ 15.9 µM).

With `Cc1ccc(-c2[nH]c3ccccc3c2C2=C(Cl)C(=O)C(c3c(C)[nH]c4ccccc34)=C(Cl)C2=O)cc1`, half-maximal inhibition (IC50) was put at 2.8 µg/mL (≈ 5.48 µM).

The compound `Cc1[nH]c2ccccc2c1C1=C(Br)C(=O)C(c2c(-c3ccccc3)[nH]c3ccccc23)=C(Br)C1=O` registered an IC50 of 3.02 µg/mL (≈ 5.15 µM).

In turn, `COc1ccc2[nH]c(C)c(C3=C(Cl)C(=O)C(c4c(-c5ccc(C)cc5)[nH]c5ccccc45)=C(Cl)C3=O)c2c1` displayed an IC50 of 3.11 µg/mL (≈ 5.74 µM).

Compound `Cc1ccc(-c2[nH]c3ccccc3c2C2=C(Br)C(=O)C(c3c(C)[nH]c4ccccc34)=C(Br)C2=O)cc1` had an IC50 of 3.25 µg/mL (≈ 5.41 µM).

Turning to `COc1ccc2[nH]c(C)c(C3=C(Br)C(=O)C(c4c(-c5ccc(C)cc5)[nH]c5ccccc45)=C(Br)C3=O)c2c1`, the IC50 came out at 2.56 µg/mL (≈ 4.06 µM).

Compound `COc1ccc2[nH]c(C)c(C3=C(Br)C(=O)C(Br)=C(c4c(C)[nH]c5ccc(OC)cc45)C3=O)c2c1` returned an IC50 of 4.72 µg/mL (≈ 8.08 µM).

Consider `Cc1[nH]c2ccccc2c1C1=C(Br)C(=O)C(c2c(C)[nH]c3ccccc23)=C(Br)C1=O`, for which the IC50 came to 7 µg/mL (≈ 13.4 µM).

`COc1ccc2[nH]c(C)c(C3=C(Br)C(=O)C(Br)=C(c4c(-c5ccccc5)[nH]c5ccccc45)C3=O)c2c1` returned an IC50 of 3.38 µg/mL (≈ 5.48 µM).

`COc1ccc2[nH]c(C)c(C3=C(Br)C(=O)C(c4c(-c5ccccc5)[nH]c5ccccc45)=C(Br)C3=O)c2c1` yielded an IC50 of 2.57 µg/mL (≈ 4.17 µM).

In the case of `COc1ccc2[nH]c(C)c(C3=C(Br)C(=O)C(Br)=C(Br)C3=O)c2c1`, the half-inhibitory concentration (IC50) is > 25 µg/mL.

Take `Cc1[nH]c2ccccc2c1C1=C(Cl)C(=O)C(Cl)=C(c2c(-c3ccccc3)[nH]c3ccccc23)C1=O`: it took 2.58 µg/mL (≈ 5.19 µM) to reach half-maximal inhibition (IC50).

As to `Cc1ccc(-c2[nH]c3ccccc3c2C2=C(Cl)C(=O)C(Cl)=C(c3c(C)[nH]c4ccccc34)C2=O)cc1`, the IC50 is 2.88 µg/mL (≈ 5.63 µM).

For `Cc1ccc(-c2[nH]c3ccccc3c2C2=C(Br)C(=O)C(Br)=C(c3c(C)[nH]c4ccccc34)C2=O)cc1`, the IC50 was found to be 6.85 µg/mL (≈ 11.4 µM).

`O=C1C(Cl)=C(Cl)C(=O)C(c2c(-c3ccccc3)[nH]c3ccccc23)=C1Cl`: the IC50 was > 25 µg/mL.

In a further assay the test system is MDA-MB-231. Briefly: Induction of apoptosis in human MDA-MB-231 cells at 1.25 ug/ml after 24 hrs by annexin V-FITC and PI-based fluorescence assay. The format is functional, cell-based.
Details: not given
As for `COc1ccc2[nH]c(C)c(C3=C(Br)C(=O)C(c4c(-c5ccc(C)cc5)[nH]c5ccccc45)=C(Br)C3=O)c2c1`, the result was Active.

A further assay relates to MDA-MB-231. Briefly: Induction of apoptosis in human MDA-MB-231 cells at 0.4 ug/ml after 24 hrs by annexin V-FITC and PI-based fluorescence assay. The format is functional, cell-based.
Details: not given
With `COc1ccc2[nH]c(C)c(C3=C(Br)C(=O)C(c4c(-c5ccc(C)cc5)[nH]c5ccccc45)=C(Br)C3=O)c2c1`, the outcome was Active.

A further assay has as its system MCF7. Briefly: Induction of apoptosis in human MCF7 cells assessed as early apoptosis at 0.9 ug/ml after 24 hrs by annexin V-FITC and PI-based fluorescence assay. The format is functional, cell-based.
Details: not given
For `Cc1[nH]c2ccccc2c1C1=C(Cl)C(=O)C(c2c(-c3ccccc3)[nH]c3ccccc23)=C(Cl)C1=O`, the outcome was Active.

Another assay deals with MCF7. Briefly: Induction of apoptosis in human MCF7 cells assessed as early apoptosis at 0.3 ug/ml after 24 hrs by annexin V-FITC and PI-based fluorescence assay. The format is functional, cell-based.
Details: not given
Take `Cc1[nH]c2ccccc2c1C1=C(Cl)C(=O)C(c2c(-c3ccccc3)[nH]c3ccccc23)=C(Cl)C1=O`: the outcome was Active.

In another assay the test system is MCF7. Briefly: Induction of apoptosis in human MCF7 cells assessed as late apoptosis at 0.9 ug/ml after 24 hrs by annexin V-FITC and PI-based fluorescence assay. The format is functional, cell-based.
Details: not given
For `Cc1[nH]c2ccccc2c1C1=C(Cl)C(=O)C(c2c(-c3ccccc3)[nH]c3ccccc23)=C(Cl)C1=O`, the result was Active.

A further assay concerns MCF7. Briefly: Induction of apoptosis in human MCF7 cells assessed as late apoptosis at 0.3 ug/ml after 24 hrs by annexin V-FITC and PI-based fluorescence assay. The format is functional, cell-based.
Details: not given
In the case of `Cc1[nH]c2ccccc2c1C1=C(Cl)C(=O)C(c2c(-c3ccccc3)[nH]c3ccccc23)=C(Cl)C1=O`, the outcome was Active.

A further assay concerns MDA-MB-231. Briefly: Induction of apoptosis in human MDA-MB-231 cells after 24 hrs by annexin V-FITC and PI-based fluorescence assay. The format is functional, cell-based.
Details: not given
With `Cc1[nH]c2ccccc2c1C1=C(Cl)C(=O)C(c2c(-c3ccccc3)[nH]c3ccccc23)=C(Cl)C1=O`, the Activity result was “Dose-dependent effect”.

Regarding `COc1ccc2[nH]c(C)c(C3=C(Br)C(=O)C(c4c(-c5ccc(C)cc5)[nH]c5ccccc45)=C(Br)C3=O)c2c1`, the Activity result is “Dose-dependent effect”.

The test system of the next assay is MCF7. Briefly: Induction of apoptosis in human MCF7 cells after 24 hrs by annexin V-FITC and PI-based fluorescence assay. The format is functional, cell-based.
Details: not given
Consider `Cc1[nH]c2ccccc2c1C1=C(Cl)C(=O)C(c2c(-c3ccccc3)[nH]c3ccccc23)=C(Cl)C1=O`, for which the Activity entry is “Dose-dependent effect”.

For the compound `COc1ccc2[nH]c(C)c(C3=C(Br)C(=O)C(c4c(-c5ccc(C)cc5)[nH]c5ccccc45)=C(Br)C3=O)c2c1`, the Activity result is “Dose-dependent effect”.
